Source: patent publication US10517964B2, “Optical imaging probes, optical imaging systems, methods of optical imaging, and methods of using optical imaging probes” (priority 2011, dated 2019)

Experiments:
[1] = radioactive OI and microPET of bone-seeking probe; type: in vivo, mice; conditions: 0.5-2 h
Description: Bone-seeking PET probe, Na^18F, was also used for radioactive OI and microPET imaging studies to further confirm the use of optical signals from radioactive probes for molecular imaging.
(§1) Radioactive optical imaging: In vivo radioactive OI was also performed with an IVIS Spectrum system. Wavelength-resolved spectral imaging was carried out suing a 18 narrow bands emission filters set (490-850 nm). Animals were placed in a light-tight chamber under isofluorane anesthesia. Each acquisition, with or without filters, took 1-5 min for all studies. Images were acquired and analyzed using Living Image 3.0 software (Caliper life sciences, Hopkinton, Mass.). Quantification of Radioactive OI images was corrected in accordance with radionuclides' respective physical decay properties. Optical signal was normalized to photons per second per centimeter square per steradian (p/s/cm^2/sr). Identical setting was used for in vitro Radioactive OI. For in vivo imaging study, normal mice or mice bearing either C6-fluc or PC3 (n=3 for each imaging probe) were injected via tail vein with Na^18F (5.3-5.7 MBq, 140-150 μCi), [^18F]FDG (10.4-11.3 MBq, 280-305 μCi), Na^131I (2.2-2.3 MBq, 59-61 μCi), ^90YCl3 (1.8-2.0 MBq, 48-54 μCi) or ^90Y-RGD-BBN (2.6-3.3 MBq, 70-90 μCi). For [^18F]FDG imaging study, the mice were fasted overnight prior to the experiment.

[2] = thyroid radioactive OI and SPECT/CT; type: in vivo, mice; conditions: quantitative analysis of OI, 0.5-24 h
Source text: Iodine ion can accumulate in the thyroid, and Na^123/131I has been widely used for imaging thyroid function, treating thyroid cancer and sodium iodide symporter^15-17. Therefore, we then tested the SPECT probe, Na^131I, for thyroid radioactive OI. […] High imaging signal was found in the thyroid and bladder at earlier time points postinjection (p.i.). […] At the end of OI study, the mice were sacrificed and the neck and chest areas were opened to expose the internal organs. The thyroid can be easily differentiated (FIG. 1.5d).
as §1, with “For in vivo imaging study, normal mice or mice bearing either C6-fluc or PC3 (n=3 for each imaging probe) were injected via tail vein with Na^18F (5.3-5.7 MBq, 140-150 μCi), [^18F]FDG (10.4-11.3 MBq, 280-305 μCi), Na^131I (2.2-2.3 MBq, 59-61 μCi), ^90YCl3 (1.8-2.0 MBq, 48-54 μCi) or ^90Y-RGD-BBN (2.6-3.3 MBq, 70-90 μCi). For [^18F]FDG imaging study, the mice were fasted overnight prior to the experiment.” left out

[3] = test system: C6 cell line without transfection; test: in vitro [18F]FHBG cell uptake, negative control cells; type: cell-based, rat; conditions: non transfected C6 cells, 37° C., 15-120 min
Description: The in vitro [^18F]FHBG cell uptake study was performed as previously described with minor modifications (12). Briefly, C6-tk cells were seeded into 12-well plates at a density of 5×10^5 cells per well 12 h prior to the experiment. The C6 cell line without transfection was used as a negative control. The cells were then incubated with [^18F]FHBG ([…], 3 μCi/well) at 37° C. for 15, 30, 60 and 120 min. Tumor cells were washed 3 times with chilled phosphate buffered saline (PBS) and harvested with 0.25% trypsin/0.02% ethylenediaminetetraacetic acid (EDTA) (Invitrogen). The cell suspensions were transferred to a 96-well flat bottom black plate (Nunc) and imaged by an IVIS 200 system (Caliper). Luminescent images were taken without a filter [see FIG. 2.1(a)]. The exposure time was 5 min. Then the radioactivity of the cell suspension was measured in a gamma counter (Packard, Meriden, Conn.). The in vitro cell uptake results were expressed as the percentage of the applied activity with decay correction [see FIG. 2.1(b)]. Experiments were performed twice with triplicate samples for each time point. […] More importantly, an excellent correlation has been obtained between OI and gamma counting results [see FIG. 2.1(c), r^2>0.95]. These findings lay the foundation for further in vivo studies to validate the feasibility of using OI for monitoring the nuclear reporter gene system.

[4] = test system: C6-tk cells (C6 rat glioma stably transfected with HSV-sr39tk); test: in vitro [18F]FHBG cell uptake, measured by OI and gamma counting; type: cell-based; conditions: 37° C., 15-120 min
Source text: This is mainly attributed to the ability of radioactive materials to produce low energy visible photons (1.2-3.1 eV, 400-1000 nm) associated with Cerenkov or Bremsstrahlung radiation (8-11). In this research study, we further evaluated the feasibility of using OI to monitor the nuclear reporter gene/reporter probe systems. HSV1-tk and [^18F]FHBG was thus chosen as a model system in this study. The C6 rat glioma cell line stably transfected with HSV-sr39tk plasmids (C6-tk) (12) was used, and the in vitro [^18F]FHBG uptakes in C6-tk cells were measured by both an IVIS optical imaging system (Caliper) and a gamma counter (Perkin Elmer). Finally, we performed in vivo imaging studies of the reporter gene/reporter probe using both OI and PET followed by a biodistribution study.
The in vitro [^18F]FHBG cell uptake study was performed as previously described with minor modifications (12). Briefly, C6-tk cells were seeded into 12-well plates at a density of 5×10^5 cells per well 12 h prior to the experiment. The C6 cell line without transfection was used as a negative control. […] Then the radioactivity of the cell suspension was measured in a gamma counter (Packard, Meriden, Conn.). The in vitro cell uptake results were expressed as the percentage of the applied activity with decay correction [see FIG. 2.1(b)]. […]

[5] = test system: C6-tk tumors (HSV1-tk reporter gene); test: in vivo OI and PET imaging of mice bearing C6-tk and C6 tumors; conditions: for tumor to normal tissue (T/N) ratio: n=6
Description: All animal studies were carried out in compliance with federal and local institutional rules for the conduct of animal experimentation. Mice bearing two tumors (C6-tk and C6) were then used for in vivo studies. The C6-tk (left) and C6 (right) cells were injected contra-laterally in the dorsal shoulder region of each mouse (2×10^6 cells/mouse; athymic nude mice were purchased from Charles River Laboratories, n=6). Approximately 10 days later, when tumor size reached about 1-1.5 cm in diameter, small animal PET and OI were performed using the mice and the PET probe [^18F]FHBG. Images at 1 h and 2 h were obtained by both OI and PET. Results are shown by average radiance (photon/second/cm^2/str) for OI and percentage of injected dose per gram (% ID/g) for PET based on the method previously described (13). […] The strong signals in the lower part of the mouse body [FIG. 2.2 (a)] are due to the presence of the radioactivity in the bladder. […] At 2 h post-injection, with the elimination of [^18F]FHBG, only C6-tk tumors can be clearly visualized in both imaging modalities (see FIG. 2.2).

[6] = biodistribution study by OI of organs and gamma counting; type: in vivo, mice
Description: To further compare the imaging results obtained from OI and PET, biodistribution studies were conducted. Mice were sacrificed and different organs were collected at 1 h post-injection of [^18F]FHBG. OI images were obtained for these radioactive organs and quantification analysis of optical images was performed using Living Image software version 3.1 [see FIG. 2.3(a)]. Meanwhile, the radioactivity of the organs was also measured using a gamma counter after weighing, and the radioactivity uptake in the tumor and normal tissues was calculated and expressed as a percentage of the injected radioactive dose per gram of tissue (% ID/g) [see FIG. 2.3(b)].
The ratio of kidney to tumor uptake of [^18F]FHBG at 1 h was also calculated to be 2.3 vs. 1.4, for gamma counting vs. OI quantification, respectively. This discrepancy could mainly originate from the diverse optical properties of different tissues, which ultimately affects light imaging and quantification. Compared with the C6-tk tumor, the kidney contains more hemoglobin that absorbs more optical photons. Moreover, unlike high energy gamma rays, the low energy photons have very weak tissue penetrability. Light sources deeper in the tissue contribute less for the total optical signals than those closer to the surface. Therefore the kidney/tumor ratio measured by OI is lower than that obtained by gamma counting. Overall, PET has a better quantitative capability than OI. However, radioactive OI can still serve as a qualitative or semiquantitative research tool for radioactive reporter probe studies. The radioactive OI signals also have a uniquely wide wavelength of emission spectrum (9). The emissions in the near infra-red range are especially favorable for OI in living subjects. In comparison with current reporter gene imaging using BLI probes, radioactive reporter probes may offer a better option for 3D OI reconstruction.

[7] = radioactive OI of 90YCl3 in mice; type: in vivo; conditions: various time points p.i.
Description: Mice injected with ^90YCl3 (1.8-2.0 MBq each) were also imaged by an IVIS Spectrum system at different time points p.i. (FIG. 1.6e). […] The results obtained by the radioactive OI also agreed well with the previously reports which measured the in vivo behavior of ^90YCl3 by biodistribution study^21.
as §1, with “For [^18F]FDG imaging study, the mice were fasted overnight prior to the experiment.” left out

[8] = OI, 1 h after tail vein injection

## [18F-].[Na+] [Na^18F]
[1]
  distribution of imaging signal: High and consistence imaging signals were observed in the bone structures

## [131I-].[Na+] [Na^131I]
[2]
  thyroid uptake: accumulated and maintained in the thyroid

## Nc1nc2c(ncn2CCC(CO)C[18F])c(=O)[nH]1 (stereo not drawn) [[^18F]FHBG, 9-(4-^18F-fluoro-3-[hydroxymethyl]butyl)guanine]
[3]
  cell uptake of [18F]FHBG: very low cell uptake
[4]
  cell uptake of [18F]FHBG: rapid and high uptake
[5]; [8]
  tracer uptake in C6-tk tumors: C6-tk tumors can be clearly delineated
  tracer uptake in control C6 tumors: minimum tracer uptakes
[5]; OI, 1 h post-injection
  tumor to normal tissue (T/N) ratio: 2.6±0.5
[5]; OI, 2 h post-injection
  tumor to normal tissue (T/N) ratio: 5.1±1.1
[5]; PET, 1 h post-injection
  tumor to normal tissue (T/N) ratio: 43.2±8.4
[5]; PET, 2 h post-injection
  tumor to normal tissue (T/N) ratio: 143.0±14.8
[6]; 1 h, OI quantification
  ratio of kidney to tumor uptake: 1.4
[6]; 1 h, gamma counting
  ratio of kidney to tumor uptake: 2.3
[6]; 1 h post-injection, excised organs
  organs visible by optical imaging (biodistribution): the C6-tk tumor, the kidney, and the intestine were clearly visible
[6]; kidney vs intestine signal, 1 h
  clearance route: mainly through urinary excretion

## [Cl][90Y]([Cl])[Cl] [^90YCl3]
[7]
  tissue accumulation: accumulated in the liver as well as in the bone (femur)
